Here are results for 8 molecules from PMC7904550, “Application of grouping and read-across for the evaluation of parabens of different chain lengths with a particular focus on endocrine properties” (Archives of Toxicology, 2021).

Data set [1] deals with human oestrogen receptor α. Also noted: method as in Watanabe et al. 2013. As to conditions: ref Watanabe et al. 2013, cited from earlier work.
A short description of another data set: in vivo. As to conditions: for concentration at 1 h / Tmax / AUC(0-t) / Cmax: Wistar, rat, in vivo; for Tmax / AUC(0-t) / Cmax: po; for AUC(0-t) / Cmax / AUC0-1 h/AUC0–t / C1h/Cmax / Clast / tlast: parent compound. The procedure: These studies were conducted similarly to OECD TG 417 applying 500 and 1000 mg/kg body weight (bw) test item via oral gavage to 10 males and 10 females per dose group. Focus of the toxicokinetic evaluation was on the measurement of the serum concentrations of the parent compounds and their (common) major metabolite p-hydroxybenzoic acid by […] in order to assess the systemic uptake and elimination of the parent compounds and this major metabolite [see also ECHA ([2017a])]. The limit of quantification was determined as 10 ng/mL for all parabens, and as 130 ng/mL for p-hydroxybenzoic acid. […] On account of these major aims, investigations of the faeces and urine were not included in the toxicokinetics screening studies.

The conditions of data set [2]: ref Yalkowsky and He (2003); cited from earlier work.
Data set [3] has as its system rats. As to conditions: 5,000, 15,000 and 40,000 ppm in feed, ref Hubbard et al. 2020, cited from earlier work.
Data set [4] has as its system rats. As to conditions: cited from earlier work.
In a further data set the test system is oestrogen receptors. On the set-up: method as in Byford et al. 2002. As to conditions: ref Byford et al. 2002; cited from earlier work.
Data set [5] relates to rats. As to conditions: cited from earlier work. The source holds these as a separate data set.
The test system of a further data set is bacteria. As to conditions: ref ECHA dissemination portal, cited from earlier work.
Data set [6] relates to rats. As to conditions: acute oral, ref ECHA dissemination portal, cited from earlier work.
The conditions of data set [7]: ref Dymicky and Huhtanen (1979), cited in CIR (2008); cited from earlier work.
Data set [8] is described as follows: Grouping and read-across of NOAEL (ECHA RAAF Scenario 5; analogue approach). As to conditions: for NOAEL for systemic repeated-dose toxicity and DART: predicted by read-across from the respective paraben (analogue approach). The text has this: The strength of evidence for the respective AEs was scored by the assessment options indicated in the RAAF ranging from Score 5 (acceptable with high confidence) to Score 1 (not acceptable) (ECHA [2017b]).

The test system of another data set is rabbits. Also noted: method as in ECHA dissemination portal. As to conditions: acute dermal exposure, ref ECHA dissemination portal; cited from earlier work.
For another data set, the system named is male rats. Also noted: method as in Hoberman et al. 2008. As to conditions: up to 10,000 ppm, corresponding to 1088 ± 68 mg/kg bw/day; ref Hoberman et al. 2008; cited from earlier work.
Data set [9] relates to rats. As to conditions: cited from earlier work. This is another data set of the same source.
On the set-up of data set [10]: method as in Hansch et al. (1995). As to conditions: ref Hansch et al. (1995); cited from earlier work.
The next data set has as its system Wistar rats. Also noted: method as in Zhang et al. 2014. As to conditions: 400 and 1000 mg/kg bw/day oral gavage; ref Zhang et al. 2014; cited from earlier work.
Data set [11] concerns rats. As to conditions: cited from earlier work. This is another data set of the same source.
Data set [12] is described as follows: Octanol–water partition coefficient (Log Kow). Format: physicochemical. As to conditions: 23 °C, OECD TG 107. The text has this: (§1) Generally, these parabens have very similar physico-chemical properties.
A further data set has as its system mammalian cells. As to conditions: OECD 476; ref ECHA dissemination portal; cited from earlier work.
A short description of data set [13]: Acid dissociation constant (pKa). Type of data set: physicochemical.
From the text: as §1

For data set [14] the following is noted: cited from earlier work.
Data set [15] deals with human oestrogen receptor β. On the set-up: method as in Watanabe et al. 2013. As to conditions: among 12 linear n-alkyl parabens C1 to C12; ref Watanabe et al. 2013; cited from earlier work.
Setting [16] is: sodium salt, read-across from the respective paraben.

Where two headings read alike, the source gives them in different places. Marks after values point to notes of the source that are not given here.

Take `C[C@]12CC[C@@H]3c4ccc(O)cc4CC[C@H]3[C@@H]1CC[C@@H]2O` [17β-estradiol, reference compound]: in [1] (receptor subtype not stated), the “Concentration of receptor effects” value is 2.5 × 10^–12.
As to `CCCCOC(=O)c1ccc(O)cc1` [Butyl paraben, Butyl 4-hydroxybenzoate], the concentration at 1 h in the data set “in vivo” (female, 500 mg/kg) came to 31.5 ng/mL; in the data set “in vivo” (female, 1000 mg/kg), 59.1 ng/mL; in “in vivo” (male, 500 mg/kg), 161 ng/mL; in the data set “in vivo” (male, 1000 mg/kg), 373 ng/mL. In addition, the Tmax in “in vivo” (female, 500 mg/kg) is 4.8 min; in the data set “in vivo” (female, 1000 mg/kg) it was 4.8 min. Moreover, the AUC(0-t) in “in vivo” (female, 500 mg/kg, AUC0-1 h) worked out at 149 ng·h/mL; in the data set “in vivo” (female, 500 mg/kg, AUC0–t), 336 ng·h/mL; in “in vivo” (female, 1000 mg/kg, AUC0-1 h), 191 ng·h/mL; in “in vivo” (female, 1000 mg/kg, AUC0–t) it was 404 ng·h/mL; in “in vivo” (male, 500 mg/kg, AUC0-1 h) it was 300 ng·h/mL; in “in vivo” (male, 500 mg/kg, AUC0–t), 705 ng·h/mL. The area under the curve AUC(0-t) came out at 860 ng·h/mL in the data set “in vivo” (male, 1000 mg/kg, AUC0-1 h) and 1580 ng·h/mL in “in vivo” (male, 1000 mg/kg, AUC0–t). Besides, the Cmax in “in vivo” (female, 500 mg/kg) came to 741 ng/mL; in the data set “in vivo” (female, 1000 mg/kg), 854 ng/mL; in the data set “in vivo” (male, 500 mg/kg) it was 1770 ng/mL; in the data set “in vivo” (male, 1000 mg/kg) it was 6520 ng/mL; in the data set “in vivo” (male, 1000 mg/kg, males), 7000 ng/mL. The “AUC0-1 h/AUC0–t” value came to 44% in “in vivo” (500 mg/kg, female); 43% in the data set “in vivo” (500 mg/kg, male); 47% in “in vivo” (1000 mg/kg, female); 54% in the data set “in vivo” (1000 mg/kg, male). Moreover, the C1h/Cmax is 4.3% in the data set “in vivo” (500 mg/kg, female); 9.1% in the data set “in vivo” (500 mg/kg, male); 6.9% in the data set “in vivo” (1000 mg/kg, female); 5.7% in “in vivo” (1000 mg/kg, male). Moreover, the Clast in the data set “in vivo” (500 mg/kg, female) came to 23.9 ng/mL; in the data set “in vivo” (500 mg/kg, male), 49.2 ng/mL; in “in vivo” (1000 mg/kg, female), 23.6 ng/mL; in the data set “in vivo” (1000 mg/kg, male) it was 18.4 ng/mL. The tlast in “in vivo” (500 mg/kg, female) is 8.0 h; in the data set “in vivo” (500 mg/kg, male), 8.0 h; in the data set “in vivo” (1000 mg/kg, female), 8.0 h; in the data set “in vivo” (1000 mg/kg, male) it was 8.0 h. The Water solubility entry in data set [2] is “Insoluble [e]”. Besides, the “Adverse alterations of fertility, fecundity, pubertal attainment or any reproductive parameters” value in the data set on rats [3] (parent, first, second generation) was “no association”. Also, in the data set with rats [3], the Liver findings result was “exposure-dependent increases in liver weight and incidences of non-neoplastic liver lesions”. Also, in the data set with rats [4] (read-across from iso-butyl paraben, OECD 437, ref ECHA dissemination portal), the “Eye irritation/eye corrosion classification” value is “Ser. eye damage (read-across; OECD 437; 2016) [a]”. Further, the “Rank of oestrogen receptor activation among shorter-chained parabens” value in the data set with oestrogen receptors is recorded as “the most activation”. Besides, the “NOAEL, point-of-departure” value with rats [5] (derived from Zhang et al. (2014), ref CIR 2019) is given as 160 mg/kg bw/day. Further, in the data set with rats [5] (juvenile rats, subcutaneous, 17 days (PND 2-18), single dose tested (Fisher et al. 1999), ref SCCS 2010), the NOEL is given as 2 mg/kg bw/day. In the data set with bacteria (read-across from iso-butyl paraben, OECD 471), the “Mutagenicity in bacteria classification” value was “Not mutagenic (read-across; OECD 471; 2016) [a]”. Moreover, the LD50 in the data set with rats [6] (OECD 423, read-across from iso-butyl paraben) was > 2000 (read across; OECD 423; 2018) [a, b] mg/kg bw. Moreover, in [7], the pKa was 8.37 [c]. Moreover, the “NOAEL for repeated-dose toxicity and DART” value in data set [8] (extrapolation, appears justifiable) is given as 1000 mg/kg bw/day. Besides, the NOAEL result with rabbits is “[b] A further acute toxicity study was conducted as dermal exposure study in rabbits yielding NOAEL > 2000 mg/kg bw”. Further, the “Effects in male rats” value in the data set with male rats is on record as “no effects”. Further, the Skin sensitisation classification entry in the data set on rats [9] (read-across from iso-butyl paraben, OECD 429, ref ECHA dissemination portal) is “Not sensitising (read-across; OECD 429; 2016) [a]”. Moreover, the “Log Kow” value in [10] is 3.54 [d]. The “Epididymal sperm count and daily sperm production” value in the data set with Wistar rats is “dose-dependently reduced epididymal sperm count and daily sperm production”. In addition, in the data set with rats [11] (read-across from iso-butyl paraben, OECD 439, ref ECHA dissemination portal), the “Skin irritation/skin corrosion classification” value is “Irritating (read-across; OECD 439; 2016) [a]”.
As to `CCOC(=O)c1ccc([O-])cc1.[Na+]` [Na-ethyl paraben, Sodium ethyl 4-HBA], the “Log Kow” value in data set [12] (pH 10.4) is -0.14 at 23 °C, pH 10.4 (OECD TG 107). The “Eye irritation/eye corrosion classification” value in the data set with rats [4] (rat, in vivo) is recorded as “Irritating (OECD 405; 1982)”. Moreover, the “Mutagenicity in bacteria classification” value with bacteria (setting [16]) is “Not mutagenic (read-across from ethyl paraben)”. Further, the LD50 in the data set on rats [6] (rats, OECD 401) was 3100 OECD 401; 1982) mg/kg bw. Besides, the “NOAEL for systemic repeated-dose toxicity and DART” value in [8] is on record as 1000 mg/kg bw/day. Besides, the Skin sensitisation classification result with rats [9] (rat, in vivo) is given as “Not sensitising (read-across from ethyl paraben)”. The “Skin irritation/skin corrosion classification” value in the data set with rats [11] (rat, in vivo) is “Not irritating (OECD 404; 1981)”.
For the molecule `COC(=O)c1ccc([O-])cc1.[Na+]` [Na-methyl paraben, Sodium methyl 4-HBA], the “Mutagenicity in mammalian cells classification” value in the data set on mammalian cells is “Not mutagenic [a] (OECD 476; 2012)”. Also, the “Mutagenicity in bacteria classification” value with bacteria (OECD 471) was “Not mutagenic [a] (OECD 471; 2012)”. The pKa in data set [13] was 8.4 (OECD TG 112).
Regarding `CCCOC(=O)c1ccc([O-])cc1.[Na+]` [Na-propyl paraben, Sodium propyl 4-HBA], the “Log Kow” value in [12] (pH 10.8) was 0.27 at 23 °C, pH 10.8 (OECD TG 107). For the same molecule, in the data set with rats [4] (rat, in vivo), the “Eye irritation/eye corrosion classification” value is “Serious eye damage (OECD 405; 1983)”. For the same molecule, in the data set with bacteria (setting [16]), the “Mutagenicity in bacteria classification” value is “Not mutagenic (read-across from propyl paraben)”. In the data set with rats [6] (rats, OECD 401), the LD50 is listed as > 5000 OECD 401; 1982) mg/kg bw. In addition, in data set [8], the “NOAEL for systemic repeated-dose toxicity and DART” value is given as 1000 mg/kg bw/day. For the same molecule, the “Skin irritation/skin corrosion classification” value in the data set on rats [11] (rat, in vivo) is “Not irritating (OECD 404; 1982)”.
Turning to `CCCCCCCOC(=O)c1ccc(O)cc1` [heptyl paraben], the “Concentration of highest potency in activating the receptor” value in data set [1] (among 12 linear n-alkyl parabens C1 to C12) is 10^–7 M.
In the case of `O=C(O)c1ccc(O)cc1` [p-hydroxybenzoic acid], the “Systemic toxicity and DART” value in data set [14] (ref ECHA registration dossier 15944) was “no systemic toxicity and no DART”. Besides, the Endocrine activity entry in data set [14] (substance evaluation, REACH Article 48, ref ECHA 2014) is “does not exhibit any endocrine activity”.
As to `CCCCCOC(=O)c1ccc(O)cc1` [pentyl paraben], the “Concentration of highest potency in activating the receptor” value in data set [15] is recorded as 10^–8 M.
